# In US11628186B2, “Method and composition for the reduction of viral replication, duration and spread of the COVID-19 and the flu” (priority 2017, dated 2023):
# Several values for one entry are separate records, joined by “and”; a condition that tells them apart may be missing. Identical values can stand only once.
# Assays:
# [1] = tested on: patients with chronic Hypoxemia; assay: Various drugs with or without pre-inhaled pyruvate formulas (Table VII); format: in vivo, human; design: SaO2 Measurements taken after medication and compared to baseline / SaO2 Measurements taken after taking the medication and compared to baseline: unit not given here
# Method: With the hundreds of patients tested in our various clinical trials, data was gathered as to the type of medications the patients used and the frequency of their use over a six-month period. The patients were asked to rate their medications form 1-10 with 1 being the most irritating with the most side effects and 10 being the best with no irritation and no side effects. In these clinical trials, various drugs were evaluated for irritation, mucus production, and efficacy in humans. The drugs were all evaluated using their current formulations and concentrations against the same formulations with the addition of sodium pyruvate, with the calcium, phosphate and magnesium formula given just prior to the use of their medications. They were instructed to 20 inhale this formula just prior to the use of their medications and to evaluate the effect of their medications on the 1-10 scale.
# Patients on the various inhaled medications whether inhaled or taken orally or by IV infusion, were enlisted in the evaluation of the inhaled sodium pyruvate calcium, phosphate and magnesium formula. The patients were tested for their SaO2 levels and those that had SaO2 levels below 92% were asked to enlist in the study. […] After the SaO2 levels were determined prior to and one hour after taking their medications, the patients returned the following day, SaO2 measurements were taken one hour prior to taking their medications. The patients were then handed the hypotonic inhalation formula of sodium pyruvate with calcium, phosphate magnesium formula and instructed to inhale it one hour before taking their medications, SaO2 measurements were then taken one hour after taking their medications.
# [2] = tested on: patients with lung diseases including COPD; assay: Comparison of inhaled salts of pyruvate, 5 ml of 5 mM solution (Table II); conditions: for Increased in FEV-1%: 5 ml of 5 mM solution in saline; for Increased in FEV-1% / Irritation / Percentage Increase in SaO2 over baseline / Percentage increase of Nitric Oxide over baseline / Relief of congestion, coughing and lung tightness: inhaled; for Irritation / Percentage Increase in SaO2 over baseline / Percentage increase of Nitric Oxide over baseline / Relief of congestion, coughing and lung tightness / Overall Rating 1-10: 5 ml of 5 mM solution; for Overall Rating 1-10: 1 most negative, 10 best
# [3] = tested on: patients with sinus & lung diseases including IPF and COPD; assay: Salts of pyruvate as 20 mM nasal sprays (Table IX)
# Source text: They never tested the individual salts for their ability to reduce inflammation or increase lung functions.
# [4] = tested on: patients with lung diseases including COPD; assay: Comparison of inhaled salts of pyruvate, 5 ml of 0.5 mM solution (Table I); conditions: for Increased in FEV-1% lung function: 5 ml of 0.5 mM solution in physiological saline; for Overall Rating 1-10: 1 most negative, 10 best
# Method: All previous studies using pyruvate to treat Allergic Rhinitis, Asthmatic and COPD patients used only the sodium salt form of pyruvic acid in saline. The drug products that were tested in the six Phase I/II clinical trial were differing concentrations of sodium pyruvate dissolved in 0.9% sodium chloride solution (Saline). These drug products contained 0.5 mM, 1.5 mM, or 5.0 mM of sodium pyruvate in physiological saline. They were administered to normal volunteers and COPD and asthmatics by inhalation therapy. […] Various sodium pyruvate solutions were evaluated in the lungs for their ability to enhance FEV1 values and reduce coughing, and lung tightness.
# The amount of the salts delivered in the 5 ml's of the 0.5 mM pyruvate solutions were compared to the amounts of the salts in 5 ml's of human blood. […] When ethyl pyruvate reacts with oxygen radical like hydrogen peroxide, it is converted to ethane and alcohol and Co2 and acetate. Ethane and alcohol are lung irritants.
# This formula can also be made by adding 3% calcium phosphate or dicalcium phosphate to the standard 0.5 mM to 30 mM sodium pyruvate saline solution see Table I.
# [5] = Drug in commercial formula taken in prescribed way
# [6] = Drug in commercial formula with Pre-inhaled sodium pyruvate, calcium & phosphate & magnesium
# [7] = Drug in commercial formula with pre-inhaled sodium pyruvate saline only
# [8] = Drugs commercial formula given as instructed in the package
# [9] = Drugs in commercial formula Pre-inhaled sodium pyruvate & calcium & phosphate & magnesium
# [10] = Drugs in commercial formula with pre-inhaled sodium pyruvate in saline only
# [11] = 20 mM (0.22%) nasal spray in 0.9% sodium chloride
# [12] = 5 ml of 0.5 mM solution, inhaled
compound,measurement,setting,value
CC(C)(C)NCC(O)c1ccc(O)c(CO)c1 (stereo not drawn) [Albuterol],SaO2 Measurements taken after medication and compared to baseline,[1]; [5],0
same,SaO2 measurements taken after taking medication and compared to baseline,[1]; [6],+4
same,SaO2 Measurements taken after taking the medication and compared to baseline,[1]; [7],+1
same,Lung functions (rating 1-10),[1]; [8],8
same,Lung functions (rating 1-10),[1]; [9],8
same,Lung functions (rating 1-10),[1]; [10],8
"CC(=O)C(=O)O.N [Ammonium, ammonium pyruvate]",Increased in FEV-1%,[2],0%
same,Irritation,[2],Yes
same,Percentage Increase in SaO2 over baseline,[2],No
same,Percentage increase of Nitric Oxide over baseline,[2],35.0%
same,"Relief of congestion, coughing and lung tightness",[2],1
same,Overall Rating 1-10,[2],1
same,Increased in FEV-1%,[3]; [11],0.0%
same,Irritation,[3]; [11],Yes
same,Percentage Increase in SaO2 over baseline,[3]; [11],No
same,Percentage increase of Nitric Oxide over baseline,[3]; [11],00.0%
same,"Relief of congestion, coughing and lung tightness",[3]; [11],1
same,Overall Rating 1-10,"[3]; 20 mM (0.22%) nasal spray, 1 most negative, 10 best",1
same,Increased in FEV-1% lung function,[4]; inhaled,0%
same,Irritation,[4]; [12],Yes
same,Percentage Increase in SaO2 over baseline,[4]; [12],No
same,Percentage decrease or increase of Nitric Oxide over baseline,[4]; [12],+5.0%
same,"Relief of congestion, coughing and lung tightness",[4]; [12],1
same,Overall Rating 1-10,[4]; 5 ml of 0.5 mM solution,1
same,reduction of nitric oxide,[4]; 5 mls of a 0.5 mM inhalation solution,did not reduce nitric oxide
same,irritation in the nasal cavities compared with the lungs,[4]; evaluated in the nasal cavities,even more irritating
same,Irritation,[4]; inhaled into the lungs,irritating
C[C@H]1[C@H](NC(=O)/C(=N\OC(C)(C)C(=O)O)c2csc(N)n2)C(=O)N1S(=O)(=O)O [Aztreonam],SaO2 Measurements taken after medication and compared to baseline,[1]; [5],−1
same,SaO2 measurements taken after taking medication and compared to baseline,[1]; [6],+4
same,SaO2 Measurements taken after taking the medication and compared to baseline,[1]; [7],0
same,Lung functions (rating 1-10),[1]; [8],8
same,Lung functions (rating 1-10),[1]; [9],7
same,Lung functions (rating 1-10),[1]; [10],8
Oc1ccc2c(c1)[C@@]13CCCC[C@@]1(O)[C@@H](C2)N(CC1CCC1)CC3 [Butorphanol],SaO2 Measurements taken after medication and compared to baseline,[1]; [5],−2
same,SaO2 measurements taken after taking medication and compared to baseline,[1]; [6],0
same,SaO2 Measurements taken after taking the medication and compared to baseline,[1]; [7],0
same,Lung functions (rating 1-10),[1]; [8],6
same,Lung functions (rating 1-10),[1]; [9],9
same,Lung functions (rating 1-10),[1]; [10],7
Clc1ccccc1C(c1ccccc1)(c1ccccc1)n1ccnc1 [Chlotrimizole],SaO2 Measurements taken after medication and compared to baseline,[1]; [5],−2
same,SaO2 measurements taken after taking medication and compared to baseline,[1]; [6],+1
same,SaO2 Measurements taken after taking the medication and compared to baseline,[1]; [7],+1
same,Lung functions (rating 1-10),[1]; [8],4
same,Lung functions (rating 1-10),[1]; [9],8
same,Lung functions (rating 1-10),[1]; [10],6
O=C(O)c1cc(=O)c2c(OCC(O)COc3cccc4oc(C(=O)O)cc(=O)c34)cccc2o1 [Cromoglycate],SaO2 Measurements taken after medication and compared to baseline,[1]; [5],0
same,SaO2 measurements taken after taking medication and compared to baseline,[1]; [6],+5
same,SaO2 Measurements taken after taking the medication and compared to baseline,[1]; [7],0
same,Lung functions (rating 1-10),[1]; [8],3
same,Lung functions (rating 1-10),[1]; [9],7
same,Lung functions (rating 1-10),[1]; [10],6
CNC[C@H](O)c1ccc(O)c(O)c1 [Epinephrine],Lung functions (rating 1-10),[1]; in vivo,3 and 4 and 5
same,SaO2 Measurements taken after medication and compared to baseline,[1]; in vivo,+1
same,SaO2 Measurements taken after taking the medication and compared to baseline,[1]; in vivo,0
same,SaO2 measurements taken after taking medication and compared to baseline,[1]; in vivo,+6
CC1(C)O[C@@H]2C[C@H]3[C@@H]4C[C@H](F)C5=CC(=O)C=C[C@]5(C)[C@H]4[C@@H](O)C[C@]3(C)[C@]2(C(=O)CO)O1 [Flunisolide],SaO2 Measurements taken after medication and compared to baseline,[1]; [5],−1
same,SaO2 measurements taken after taking medication and compared to baseline,[1]; [6],+4
same,SaO2 Measurements taken after taking the medication and compared to baseline,[1]; [7],+1
same,Lung functions (rating 1-10),[1]; [8],6
same,Lung functions (rating 1-10),[1]; [9],6
same,Lung functions (rating 1-10),[1]; [10],6
C/C(=C\C(=O)OCCCCCCCCC(=O)O)C[C@@H]1OC[C@H](C[C@@H]2O[C@H]2[C@@H](C)[C@H](C)O)[C@@H](O)[C@H]1O [Mupirocin],SaO2 Measurements taken after medication and compared to baseline,[1]; [5],0
same,SaO2 measurements taken after taking medication and compared to baseline,[1]; [6],+4
same,SaO2 Measurements taken after taking the medication and compared to baseline,[1]; [7],0
same,Lung functions (rating 1-10),[1]; [8],4
same,Lung functions (rating 1-10),[1]; [9],8
same,Lung functions (rating 1-10),[1]; [10],6
"CC(=O)N[C@@H](CS)C(=O)O [N-acetylcysteine, reference compound]",Increased in FEV-1%,[2],2%
same,Irritation,[2],yes
same,Percentage Increase in SaO2 over baseline,[2],0%
same,Percentage increase of Nitric Oxide over baseline,[2],1%
same,"Relief of congestion, coughing and lung tightness",[2],7
same,Overall Rating 1-10,[2],7
same,Increased in FEV-1% lung function,[4]; inhaled,6%
same,Irritation,[4]; [12],None
same,Percentage Increase in SaO2 over baseline,[4]; [12],0%
same,Percentage decrease or increase of Nitric Oxide over baseline,[4]; [12],0%
same,"Relief of congestion, coughing and lung tightness",[4]; [12],8
same,Overall Rating 1-10,[4]; 5 ml of 0.5 mM solution,7
same,SaO2 Measurements taken after medication and compared to baseline,[1]; [5],+1
same,SaO2 measurements taken after taking medication and compared to baseline,[1]; [6],+4
same,SaO2 Measurements taken after taking the medication and compared to baseline,[1]; [7],0
same,Lung functions (rating 1-10),[1]; [8],4
same,Lung functions (rating 1-10),[1]; [9],8
same,Lung functions (rating 1-10),[1]; [10],6
N=C(N)c1ccc(OCCCCCOc2ccc(C(=N)N)cc2)cc1 [Pentamidine isethionate],SaO2 Measurements taken after medication and compared to baseline,[1]; [5],−1
same,SaO2 measurements taken after taking medication and compared to baseline,[1]; [6],+2
same,SaO2 Measurements taken after taking the medication and compared to baseline,[1]; [7],+1
same,Lung functions (rating 1-10),[1]; [8],4
same,Lung functions (rating 1-10),[1]; [9],8
same,Lung functions (rating 1-10),[1]; [10],5
NC(=O)c1ncn([C@@H]2O[C@H](CO)[C@@H](O)[C@H]2O)n1 [Ribavirin],SaO2 Measurements taken after medication and compared to baseline,[1]; [5],−3
same,SaO2 measurements taken after taking medication and compared to baseline,[1]; [6],+2
same,SaO2 Measurements taken after taking the medication and compared to baseline,[1]; [7],0
same,Lung functions (rating 1-10),[1]; [8],5
same,Lung functions (rating 1-10),[1]; [9],7
same,Lung functions (rating 1-10),[1]; [10],6
NC[C@H]1O[C@H](O[C@H]2[C@H](O)[C@@H](O[C@H]3O[C@H](CO)[C@@H](O)[C@H](N)[C@H]3O)[C@H](N)C[C@@H]2N)[C@H](N)C[C@@H]1O [Tobramycin],SaO2 Measurements taken after medication and compared to baseline,[1]; [5],−2
same,SaO2 measurements taken after taking medication and compared to baseline,[1]; [6],+3
same,SaO2 Measurements taken after taking the medication and compared to baseline,[1]; [7],0
same,Lung functions (rating 1-10),[1]; [8],5
same,Lung functions (rating 1-10),[1]; [9],6
same,Lung functions (rating 1-10),[1]; [10],5
CN[C@H](CC(C)C)C(=O)N[C@H]1C(=O)N[C@@H](CC(N)=O)C(=O)N[C@H]2C(=O)N[C@H]3C(=O)N[C@H](C(=O)N[C@H](C(=O)O)c4cc(O)cc(O)c4-c4cc3ccc4O)[C@H](O)c3ccc(c(Cl)c3)Oc3cc2cc(c3O[C@@H]2O[C@H](CO)[C@@H](O)[C@H](O)[C@H]2O[C@H]2C[C@](C)(N)[C@H](O)[C@H](C)O2)Oc2ccc(cc2Cl)[C@H]1O [Vancomycin],SaO2 Measurements taken after medication and compared to baseline,[1]; [5],−1
same,SaO2 measurements taken after taking medication and compared to baseline,[1]; [6],+1
same,SaO2 Measurements taken after taking the medication and compared to baseline,[1]; [7],0
same,Lung functions (rating 1-10),[1]; [8],6
same,Lung functions (rating 1-10),[1]; [9],8
same,Lung functions (rating 1-10),[1]; [10],5
CC(=O)N[C@H]1[C@H]([C@H](O)[C@H](O)CO)OC(C(=O)O)=C[C@@H]1N=C(N)N [Zanamivir],SaO2 Measurements taken after medication and compared to baseline,[1]; [5],−2
same,SaO2 measurements taken after taking medication and compared to baseline,[1]; [6],+5
same,SaO2 Measurements taken after taking the medication and compared to baseline,[1]; [7],0
same,Lung functions (rating 1-10),[1]; [8],4
same,Lung functions (rating 1-10),[1]; [9],7
same,Lung functions (rating 1-10),[1]; [10],5
"CCOC(=O)C(C)=O [ethyl pyruvate, reference compound]",FEV1,[4]; 5 mls of a 0.5 mM pyruvate inhalation solution in COPD and asthmatic patients,did not increase FEV-1
same,Irritation,[4]; in vivo,irritating
Insulin,SaO2 Measurements taken after medication and compared to baseline,[1]; [5],−2
same,SaO2 measurements taken after taking medication and compared to baseline,[1]; [6],+4
same,SaO2 Measurements taken after taking the medication and compared to baseline,[1]; [7],+1
same,Lung functions (rating 1-10),[1]; [8],5
same,Lung functions (rating 1-10),[1]; [9],7
same,Lung functions (rating 1-10),[1]; [10],6
Levorphanol Tartrate,SaO2 Measurements taken after medication and compared to baseline,[1]; [5],−6
same,SaO2 measurements taken after taking medication and compared to baseline,[1]; [6],+6
same,SaO2 Measurements taken after taking the medication and compared to baseline,[1]; [7],+1
same,Lung functions (rating 1-10),[1]; [8],2
same,Lung functions (rating 1-10),[1]; [9],8
same,Lung functions (rating 1-10),[1]; [10],6
